Source: US10016382B2, “Method for decreasing skeletal muscle damage and/or oxidative stress in mammals” (LONZA INC., priority 2014, dated 2018)
“And” between values parts separate entries of the source, which are not always exact repeats. Equal values may be shown once.

How the values were obtained:
Labrador Retrievers [1] = test: Activity by Actical monitors, long (endurance) runs, Example 1; format: in vivo, dog; conditions: Ex.1, 250 mg/d; for Activity long runs, Least Sq Mean: average of 13 weekly long runs, mixed model
Source text: Each test dog wore an Actical activity monitor from Philips Respironics on a collar for the short higher intensity runs and also wore an Actical activity monitor for the weekly longer endurance runs. The activity data was downloaded into spread sheets along with each dogs identity. Twenty four hours after each long run during the 13 wk running program each of the dogs were scored by kennel staff for soreness or any type of lameness The exercise program was decreased in a tapering program during wk 11 and 12 to allow the dogs to rest for the final long run completed on wk 13. Pre-run serum samples from each test dog was taken 24 hr before the last endurance run. The heart rate and basal body temperature was determined for each test dog prior to the last long endurance run. The distance and number of sprints affiliated with the short runs (marks) were decreased during wk 11 back to 1200 total yd/d or 2400 yd/wk and decreased again on wk 12 to 600 yd/d or a total of 1200 yd/wk to provide rest for the final long run on wk 13. The weekly endurance run was 5 miles in the beginning, increased by ½ mile per wk and was increased to a distance of 10 miles on the 10th week. The dogs ran only a 5 mile endurance run on wk 11 and only a 2 mile endurance run on wk 12 in order to rest for the final long run during the 13th wk. The endurance (long) runs for the 40 dogs were carried out on the 5th and 6th day of each wk for both treatments. Half of the dogs were run on Friday (5th d) and half of the dogs were run on the Saturday (6th d). The exercise regimen was finalized during the 13th week of the study by resting the dogs for 3 days and then running half of the dogs from each group for a 15 mile endurance run on Monday and the remaining 20 dogs were run the 15 mile endurance run on Tuesday. The longer endurance type runs were slightly slower to enhance fat oxidation and represent an exercise intensity equivalent to 50%-65% VO2 max. Performance and Recovery Time: An Actical monitor (Philips Respironics) was worn around the neck of each dog on a collar and utilized to evaluate the amount of movement (measured total movements and intensity) for each dog for the purpose of evaluating equal work between treatments and also to evaluate the individual work intensity while completing the daily retrieves. Each dog wore the Actical monitor for each long run and wore the Actical monitor for the final 15 mile run. The Actical monitor data was downloaded to a computer for evaluation. Statistical Methods: GraphPad Prism 6.0 was used to compare means between groups for run time, food intake, body weight, and changes in blood chemistry using an unpaired t-test. Results were considered significant if a p-value of 0.05 was obtained. JMP 10.0.2 was used to create a mixed model for long runs, short runs, body composition, and blood chemistry.

Labrador Retrievers [2] = test: Heart rate and body temperature recovery following 15 mile run, Example 2 part one; format: in vivo, dog; conditions: for Temperature After Run: in °F (unit assumed)
Procedure: Each performance dog wore the Actical activity monitor and GPS tracking collar during the last 15 mile endurance run. The final run was conducted in a manner analogous to that of Example 1. All activity was accurately and precisely calculated using the GPS tracking monitors. Immediately following the 15 mile endurance run, each dog was placed in a kennel and evaluated for recovery time in body temperature (every 15 minutes for 2 hours) and heart rate (every 2 minutes for up to 20 minutes until basal beats per minute (BPM) was reached). Body temperature and heart rate were measured as described in Example 1.

C[N+](C)(C)C[C@H](O)CC(=O)[O-] [L-carnitine]
Activity long runs, APM/lb Mean (Labrador Retrievers [1]; Week 1, both sexes): 1535 Movements/Mile/LB BW | Activity long runs, APM/lb Mean (Labrador Retrievers [1]; Week 1, females): 1825 Movements/Mile/LB BW | Activity long runs, APM/lb Mean (Labrador Retrievers [1]; Week 1, males): 1298 Movements/Mile/LB BW | Activity long runs, APM/lb Mean (Labrador Retrievers [1]; Week 2, both sexes): 1385 Movements/Mile/LB BW | Activity long runs, APM/lb Mean (Labrador Retrievers [1]; Week 2, females): 1616 Movements/Mile/LB BW | Activity long runs, APM/lb Mean (Labrador Retrievers [1]; Week 2, males): 1177 Movements/Mile/LB BW | Activity long runs, APM/lb Mean (Labrador Retrievers [1]; Week 3, both sexes): 1298 Movements/Mile/LB BW | Activity long runs, APM/lb Mean (Labrador Retrievers [1]; Week 3, females): 1559 Movements/Mile/LB BW | Activity long runs, APM/lb Mean (Labrador Retrievers [1]; Week 3, males): 1065 Movements/Mile/LB BW | Activity long runs, APM/lb Mean (Labrador Retrievers [1]; Week 4, both sexes): 1334 Movements/Mile/LB BW | Activity long runs, APM/lb Mean (Labrador Retrievers [1]; Week 4, females): 1522 Movements/Mile/LB BW | Activity long runs, APM/lb Mean (Labrador Retrievers [1]; Week 4, males): 1093 Movements/Mile/LB BW | Activity long runs, APM/lb Mean (Labrador Retrievers [1]; Week 5, both sexes): 1288 Movements/Mile/LB BW | Activity long runs, APM/lb Mean (Labrador Retrievers [1]; Week 5, females): 1582 Movements/Mile/LB BW | Activity long runs, APM/lb Mean (Labrador Retrievers [1]; Week 5, males): 1048 Movements/Mile/LB BW | Activity long runs, APM/lb Mean (Labrador Retrievers [1]; Week 6, both sexes): 1278 Movements/Mile/LB BW | Activity long runs, APM/lb Mean (Labrador Retrievers [1]; Week 6, females): 1472 Movements/Mile/LB BW | Activity long runs, APM/lb Mean (Labrador Retrievers [1]; Week 6, males): 1105 Movements/Mile/LB BW | Activity long runs, APM/lb Mean (Labrador Retrievers [1]; Week 7, both sexes): 1264 Movements/Mile/LB BW | Activity long runs, APM/lb Mean (Labrador Retrievers [1]; Week 7, females): 1391 Movements/Mile/LB BW | Activity long runs, APM/lb Mean (Labrador Retrievers [1]; Week 7, males): 1162 Movements/Mile/LB BW | Activity long runs, APM/lb Mean (Labrador Retrievers [1]; Week 8, both sexes): 1241 Movements/Mile/LB BW | Activity long runs, APM/lb Mean (Labrador Retrievers [1]; Week 8, females): 1437 Movements/Mile/LB BW | Activity long runs, APM/lb Mean (Labrador Retrievers [1]; Week 8, males): 1081 Movements/Mile/LB BW | Activity long runs, APM/lb Mean (Labrador Retrievers [1]; Week 9, both sexes): 1194 Movements/Mile/LB BW | Activity long runs, APM/lb Mean (Labrador Retrievers [1]; Week 9, females): 1355 Movements/Mile/LB BW | Activity long runs, APM/lb Mean (Labrador Retrievers [1]; Week 9, males): 1062 Movements/Mile/LB BW | Activity long runs, APM/lb Mean (Labrador Retrievers [1]; Week 10, both sexes): 1192 Movements/Mile/LB BW | Activity long runs, APM/lb Mean (Labrador Retrievers [1]; Week 10, females): 1385 Movements/Mile/LB BW | Activity long runs, APM/lb Mean (Labrador Retrievers [1]; Week 10, males): 1018 Movements/Mile/LB BW | Activity long runs, APM/lb Mean (Labrador Retrievers [1]; Week 11, both sexes): 1364 Movements/Mile/LB BW | Activity long runs, APM/lb Mean (Labrador Retrievers [1]; Week 11, females): 1655 Movements/Mile/LB BW | Activity long runs, APM/lb Mean (Labrador Retrievers [1]; Week 11, males): 1126 Movements/Mile/LB BW | Activity long runs, APM/lb Mean (Labrador Retrievers [1]; Week 13, both sexes): 1116 Movements/Mile/LB BW | Activity long runs, APM/lb Mean (Labrador Retrievers [1]; Week 13, females): 1251 Movements/Mile/LB BW | Activity long runs, APM/lb Mean (Labrador Retrievers [1]; Week 13, males): 1006 Movements/Mile/LB BW | Activity long runs, Least Sq Mean (Labrador Retrievers [1]; both sexes): 1317 Movements/Mile/LB BW and 1317.0647 Movements/Mile/LB BW | Activity long runs, Least Sq Mean (Labrador Retrievers [1]; females): 1509 Movements/Mile/LB BW and 1509.2493 Movements/Mile/LB BW | Activity long runs, Least Sq Mean (Labrador Retrievers [1]; males): 1124 Movements/Mile/LB BW and 1124.8801 Movements/Mile/LB BW | Heartrate after run (Labrador Retrievers [2]; Ex.2 part one, 250 mg/d, 4 minutes post final run, both sexes): 156.15 BPM | Heartrate after run (Labrador Retrievers [2]; Ex.2 part one, 250 mg/d, 4 minutes post final run, males): 160 BPM | Heartrate after run (Labrador Retrievers [2]; Ex.2 part one, 250 mg/d, immediately following 15 mile run, both sexes): 184.23 BPM | Return to basal temperature vs control (regression model) (Labrador Retrievers [2]; Ex.2 part one, 250 mg/d, males and females, FIGS. 5A, 5B): reached basal temperatures faster | Return to basal heart rate vs control (regression model) (Labrador Retrievers [2]; Ex.2 part one, 250 mg/d, overall group, males and females, FIGS. 4A, 4B): reached basal heart rate faster | Temperature After Run (Labrador Retrievers [2]; Females, Temp - 0 min after 15 mile run): 105.16 ± 0.35 | Temperature After Run (Labrador Retrievers [2]; Females, Temp - 15 min after 15 mile run): 102.69 ± 0.24 | Temperature After Run (Labrador Retrievers [2]; Females, Temp - 30 min after 15 mile run): 101.31 ± 0.2 | Temperature After Run (Labrador Retrievers [2]; Females, Temp - 45 min after 15 mile run): 101.16 ± 0.2 | Temperature After Run (Labrador Retrievers [2]; Females, Temp - 60 min after 15 mile run): 101.14 ± 0.2 | Heartrate After Run (Labrador Retrievers [2]; Females, Time - 0 min after 15 mile run): 180.83 ± 3.36 BPM | Heartrate After Run (Labrador Retrievers [2]; Females, Time - 2 min after 15 mile run): 165 ± 6.09 BPM | Heartrate After Run (Labrador Retrievers [2]; Females, Time - 4 min after 15 mile run): 152.31 ± 6.71 BPM | Heartrate After Run (Labrador Retrievers [2]; Females, Time - 6 min after 15 mile run): 149.17 ± 6.21 BPM | Heartrate After Run (Labrador Retrievers [2]; Females, Time - 8 min after 15 mile run): 135 ± 6.34 BPM | Heartrate After Run (Labrador Retrievers [2]; Females, Time - 10 min after 15 mile run): 117.9 ± 7.45 BPM | Heartrate After Run (Labrador Retrievers [2]; Females, Time - 12 min after 15 mile run): 113.08 ± 8.5 BPM | Heartrate After Run (Labrador Retrievers [2]; Females, Time - 14 min after 15 mile run): 107.27 ± 8.95 BPM | Heartrate After Run (Labrador Retrievers [2]; Females, Time - 16 min after 15 mile run): 78.57 ± 5.73 BPM | Heartrate After Run (Labrador Retrievers [2]; Females, Time - 18 min after 15 mile run): 77.86 ± 5.47 BPM | Heartrate After Run (Labrador Retrievers [2]; Females, Time - 20 min after 15 mile run): 77.14 ± 5.29 BPM | Temperature After Run (Labrador Retrievers [2]; Males, Temp - 0 min after 15 mile run): 105.79 ± 0.36 | Temperature After Run (Labrador Retrievers [2]; Males, Temp - 15 min after 15 mile run): 102.39 ± 0.4 | Temperature After Run (Labrador Retrievers [2]; Males, Temp - 30 min after 15 mile run): 100.94 ± 0.23 | Temperature After Run (Labrador Retrievers [2]; Males, Temp - 45 min after 15 mile run): 100.87 ± 0.19 | Temperature After Run (Labrador Retrievers [2]; Males, Temp - 60 min after 15 mile run): 100.87 ± 0.19 | Heartrate After Run (Labrador Retrievers [2]; Males, Time - 0 min after 15 mile run): 187.14 ± 3.54 BPM | Heartrate After Run (Labrador Retrievers [2]; Males, Time - 2 min after 15 mile run): 172.14 ± 3.81 BPM | Heartrate After Run (Labrador Retrievers [2]; Males, Time - 4 min after 15 mile run): 160 ± 4.94 BPM | Heartrate After Run (Labrador Retrievers [2]; Males, Time - 6 min after 15 mile run): 142.86 ± 5.59 BPM | Heartrate After Run (Labrador Retrievers [2]; Males, Time - 8 min after 15 mile run): 129.29 ± 5.29 BPM | Heartrate After Run (Labrador Retrievers [2]; Males, Time - 10 min after 15 mile run): 122.86 ± 3.7 BPM | Heartrate After Run (Labrador Retrievers [2]; Males, Time - 12 min after 15 mile run): 108.57 ± 3.76 BPM | Heartrate After Run (Labrador Retrievers [2]; Males, Time - 14 min after 15 mile run): 95 ± 3.1 BPM | Heartrate After Run (Labrador Retrievers [2]; Males, Time - 16 min after 15 mile run): 92.14 ± 3 BPM | Heartrate After Run (Labrador Retrievers [2]; Males, Time - 18 min after 15 mile run): 89.29 ± 2.21 BPM | Heartrate After Run (Labrador Retrievers [2]; Males, Time - 20 min after 15 mile run): 89.29 ± 2.21 BPM | Temperature After Run (Labrador Retrievers [2]; Whole Groups, Temp - 0 min after 15 mile run): 105.48 ± 0.25 | Temperature After Run (Labrador Retrievers [2]; Whole Groups, Temp - 15 min after 15 mile run): 102.54 ± 0.23 | Temperature After Run (Labrador Retrievers [2]; Whole Groups, Temp - 30 min after 15 mile run): 101.12 ± 0.15 | Temperature After Run (Labrador Retrievers [2]; Whole Groups, Temp - 45 min after 15 mile run): 101.01 ± 0.14 | Temperature After Run (Labrador Retrievers [2]; Whole Groups, Temp - 60 min after 15 mile run): 101.01 ± 0.14 | Heartrate After Run (Labrador Retrievers [2]; Whole Groups, Time - 0 min after 15 mile run): 184.23 ± 2.49 BPM | Heartrate After Run (Labrador Retrievers [2]; Whole Groups, Time - 2 min after 15 mile run): 168.85 ± 3.48 BPM | Heartrate After Run (Labrador Retrievers [2]; Whole Groups, Time - 4 min after 15 mile run): 156.15 ± 4.15 BPM | Heartrate After Run (Labrador Retrievers [2]; Whole Groups, Time - 6 min after 15 mile run): 145.77 ± 4.12 BPM | Heartrate After Run (Labrador Retrievers [2]; Whole Groups, Time - 8 min after 15 mile run): 131.92 ± 4.04 BPM | Heartrate After Run (Labrador Retrievers [2]; Whole Groups, Time - 10 min after 15 mile run): 120.79 ± 3.72 BPM | Heartrate After Run (Labrador Retrievers [2]; Whole Groups, Time - 12 min after 15 mile run): 110.74 ± 4.46 BPM | Heartrate After Run (Labrador Retrievers [2]; Whole Groups, Time - 14 min after 15 mile run): 100.4 ± 4.38 BPM | Heartrate After Run (Labrador Retrievers [2]; Whole Groups, Time - 16 min after 15 mile run): 85.36 ± 3.43 BPM | Heartrate After Run (Labrador Retrievers [2]; Whole Groups, Time - 18 min after 15 mile run): 83.57 ± 3.1 BPM | Heartrate After Run (Labrador Retrievers [2]; Whole Groups, Time - 20 min after 15 mile run): 83.21 ± 3.05 BPM
